pKi: −log10 of the molar value.
Target: Sigma non-opioid intracellular receptor 1 (Cavia porcellus) (UniProt Q60492)
Assay: Binding affinity for sigma 1 opioid receptor, measured on guinea pig brain membranes using [3H]- (+)-pentazocine as radioligand

Chain of Sigma non-opioid intracellular receptor 1 (Cavia porcellus) (Q60492 whole entry, looked up): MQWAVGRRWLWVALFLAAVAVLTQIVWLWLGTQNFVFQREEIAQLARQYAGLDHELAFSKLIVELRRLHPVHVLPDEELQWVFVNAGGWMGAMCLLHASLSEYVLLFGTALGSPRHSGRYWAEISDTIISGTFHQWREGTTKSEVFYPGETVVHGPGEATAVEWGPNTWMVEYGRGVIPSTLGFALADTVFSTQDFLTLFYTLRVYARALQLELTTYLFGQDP

Q: `O=C(Nc1cccc2ccccc12)NC1CCN(Cc2ccccc2)CC1` [1-(1-Benzyl-piperidin-4-yl)-3-naphthalen-1-yl-urea] was tested. Which pKi did it give?
A: 7.64

Q: With `O=C(Cc1ccccc1F)NC1CCN(Cc2cccc(I)c2)CC1` [2-(2-Fluoro-phenyl)-N-[1-(3-iodo-benzyl)-piperidin-4-yl]-acetamide] as the compound, how does the pKi read?
A: 7.81

Q: With `O=C(Cc1ccccc1F)NC1CCN(Cc2ccc(I)cc2)CC1` [2-(2-Fluoro-phenyl)-N-[1-(4-iodo-benzyl)-piperidin-4-yl]-acetamide] as the compound, how does the pKi read?
A: 8.38

Q: With `O=C(Cc1cccc(Br)c1)NC1CCN(Cc2cccc(I)c2)CC1` [2-(3-Bromo-phenyl)-N-[1-(3-iodo-benzyl)-piperidin-4-yl]-acetamide] as the compound, how does the pKi read?
A: 8.46

Q: `O=C(Cc1cccc(Br)c1)NC1CCN(Cc2ccc(F)cc2)CC1` [2-(3-Bromo-phenyl)-N-[1-(4-fluoro-benzyl)-piperidin-4-yl]-acetamide] was tested. Which pKi did it give?
A: 8.92

Q: With `O=C(Cc1cccc(Br)c1)NC1CCN(Cc2ccc(I)cc2)CC1` [2-(3-Bromo-phenyl)-N-[1-(4-iodo-benzyl)-piperidin-4-yl]-acetamide] as the compound, how does the pKi read?
A: 8.75

Q: With `O=C(Cc1cccc(Cl)c1)NC1CCN(Cc2cccc(I)c2)CC1` [2-(3-Chloro-phenyl)-N-[1-(3-iodo-benzyl)-piperidin-4-yl]-acetamide] as the compound, how does the pKi read?
A: 8.64

Q: With `O=C(Cc1cccc(Cl)c1)NC1CCN(Cc2ccc(F)cc2)CC1` [2-(3-Chloro-phenyl)-N-[1-(4-fluoro-benzyl)-piperidin-4-yl]-acetamide] as the compound, how does the pKi read?
A: 8.94

Q: `O=C(Cc1cccc(Cl)c1)NC1CCN(Cc2ccc(I)cc2)CC1` [2-(3-Chloro-phenyl)-N-[1-(4-iodo-benzyl)-piperidin-4-yl]-acetamide] was tested. Which pKi did it give?
A: 8.49

Q: With `O=C(Cc1cccc(F)c1)NC1CCN(Cc2cccc(I)c2)CC1` [2-(3-Fluoro-phenyl)-N-[1-(3-iodo-benzyl)-piperidin-4-yl]-acetamide] as the compound, how does the pKi read?
A: 8.37

Q: With `O=C(Cc1cccc(F)c1)NC1CCN(Cc2ccc(I)cc2)CC1` [2-(3-Fluoro-phenyl)-N-[1-(4-iodo-benzyl)-piperidin-4-yl]-acetamide] as the compound, how does the pKi read?
A: 8.65

Q: `O=C(Cc1ccccc1)NC1CCN(Cc2ccccc2C(F)(F)F)CC1` [2-Phenyl-N-[1-(2-trifluoromethyl-benzyl)-piperidin-4-yl]-acetamide] was tested. Which pKi did it give?
A: < 6.00

Q: With `O=C(Cc1ccccc1)NC1CCN(Cc2cccc(C(F)(F)F)c2)CC1` [2-Phenyl-N-[1-(3-trifluoromethyl-benzyl)-piperidin-4-yl]-acetamide] as the compound, how does the pKi read?
A: 6.85

Q: With `O=C(Cc1ccccc1)NC1CCN(Cc2ccc(C(F)(F)F)cc2)CC1` [2-Phenyl-N-[1-(4-trifluoromethyl-benzyl)-piperidin-4-yl]-acetamide] as the compound, how does the pKi read?
A: 7.06

Q: With `O=C(Cc1cnc[nH]1)NC1CCN(Cc2ccccc2)CC1` [N-(1-Benzyl-piperidin-4-yl)-2-(1H-imidazol-4-yl)-acetamide] as the compound, how does the pKi read?
A: 6.60

Q: How did the pKi turn out when `O=C(Cc1c[nH]c2ccccc12)NC1CCN(Cc2ccccc2)CC1` [N-(1-Benzyl-piperidin-4-yl)-2-(1H-indol-3-yl)-acetamide] was run?
A: 7.96

Q: With `O=C(Cc1ccc(I)cc1)NC1CCN(Cc2ccccc2)CC1` [N-(1-Benzyl-piperidin-4-yl)-2-(4-iodo-phenyl)-acetamide] as the compound, how does the pKi read?
A: 7.86

Q: `O=C(Cc1c[nH]c2ccc(Br)cc12)NC1CCN(Cc2ccccc2)CC1` [N-(1-Benzyl-piperidin-4-yl)-2-(5-bromo-1H-indol-3-yl)-acetamide] was tested. Which pKi did it give?
A: 7.28

Q: `COc1ccc2[nH]cc(CC(=O)NC3CCN(Cc4ccccc4)CC3)c2c1` [N-(1-Benzyl-piperidin-4-yl)-2-(5-methoxy-1H-indol-3-yl)-acetamide] was tested. Which pKi did it give?
A: 6.90

Q: `COc1ccc2c(c1)C(CC(=O)NC1CCN(Cc3ccccc3)CC1)CC2=O` (configuration not stated) [N-(1-Benzyl-piperidin-4-yl)-2-(6-methoxy-3-oxo-indan-1-yl)-acetamide] was tested. Which pKi did it give?
A: 6.52

Q: With `O=C1C=CC2C(CC(=O)NC3CCN(Cc4ccccc4)CC3)=CC(=O)OC2C1` (configuration not stated) [N-(1-Benzyl-piperidin-4-yl)-2-(7-hydroxy-2-oxo-4a,8a-dihydro-2H-chromen-4-yl)-acetamide] as the compound, how does the pKi read?
A: < 6.00

Q: With `O=C(CSc1ncccn1)NC1CCN(Cc2ccccc2)CC1` [N-(1-Benzyl-piperidin-4-yl)-2-(pyrimidin-2-ylsulfanyl)-acetamide] as the compound, how does the pKi read?
A: 6.82

Q: With `O=C(Cc1cccc2ccccc12)NC1CCN(Cc2ccccc2)CC1` [N-(1-Benzyl-piperidin-4-yl)-2-naphthalen-1-yl-acetamide] as the compound, how does the pKi read?
A: 8.33

Q: `O=C(Cc1ccc2ccccc2c1)NC1CCN(Cc2ccccc2)CC1` [N-(1-Benzyl-piperidin-4-yl)-2-naphthalen-2-yl-acetamide] was tested. Which pKi did it give?
A: 7.21

Q: `O=C(Cc1ccccn1)NC1CCN(Cc2ccccc2)CC1` [N-(1-Benzyl-piperidin-4-yl)-2-pyridin-2-yl-acetamide] was tested. Which pKi did it give?
A: 6.63

Q: With `O=C(Cc1cccnc1)NC1CCN(Cc2ccccc2)CC1` [N-(1-Benzyl-piperidin-4-yl)-2-pyridin-3-yl-acetamide] as the compound, how does the pKi read?
A: 6.57

Q: `O=C(Cc1ccncc1)NC1CCN(Cc2ccccc2)CC1` [N-(1-Benzyl-piperidin-4-yl)-2-pyridin-4-yl-acetamide] was tested. Which pKi did it give?
A: 6.53

Q: How did the pKi turn out when `O=C(Cc1cccs1)NC1CCN(Cc2ccccc2)CC1` [N-(1-Benzyl-piperidin-4-yl)-2-thiophen-2-yl-acetamide] was run?
A: 8.41

Q: `O=C(Cc1ccsc1)NC1CCN(Cc2ccccc2)CC1` [N-(1-Benzyl-piperidin-4-yl)-2-thiophen-3-yl-acetamide] was tested. Which pKi did it give?
A: 8.14

Q: `O=C(Cc1ccccc1)NC1CCN(Cc2ccc3ccccc3c2)CC1` [N-(1-Naphthalen-2-ylmethyl-piperidin-4-yl)-2-phenyl-acetamide] was tested. Which pKi did it give?
A: 7.62

Q: With `O=C(Cc1ccccc1)NC1CCN(CCc2ccccc2)CC1` [N-(1-Phenethyl-piperidin-4-yl)-2-phenyl-acetamide] as the compound, how does the pKi read?
A: 7.51

Q: With `O=C(Cc1ccccc1)NC1CCN(Cc2ccccc2F)CC1` [N-[1-(2-Fluoro-benzyl)-piperidin-4-yl]-2-phenyl-acetamide] as the compound, how does the pKi read?
A: 7.99

Q: With `O=C(Cc1ccccc1)NC1CCN(Cc2ccccc2I)CC1` [N-[1-(2-Iodo-benzyl)-piperidin-4-yl]-2-phenyl-acetamide] as the compound, how does the pKi read?
A: 6.46

Q: `O=C(Cc1ccccc1)NC1CCN(Cc2ccc(Cl)c(Cl)c2)CC1` [N-[1-(3,4-Dichloro-benzyl)-piperidin-4-yl]-2-phenyl-acetamide] was tested. Which pKi did it give?
A: 8.14

Q: `O=C(Cc1ccccc1)NC1CCN(Cc2ccc(F)c(F)c2)CC1` [N-[1-(3,4-Difluoro-benzyl)-piperidin-4-yl]-2-phenyl-acetamide] was tested. Which pKi did it give?
A: 8.20

Q: How did the pKi turn out when `O=C(Cc1ccccc1)NC1CCN(Cc2cccc(F)c2)CC1` [N-[1-(3-Fluoro-benzyl)-piperidin-4-yl]-2-phenyl-acetamide] was run?
A: 8.09

Q: How did the pKi turn out when `O=C(Cc1ccccc1)NC1CCN(Cc2cccc(I)c2)CC1` [N-[1-(3-Iodo-benzyl)-piperidin-4-yl]-2-phenyl-acetamide] was run?
A: 8.17

Q: How did the pKi turn out when `O=C(Cc1ccccc1F)NC1CCN(Cc2ccc(F)cc2)CC1` [N-[1-(4-Fluoro-benzyl)-piperidin-4-yl]-2-(2-fluoro-phenyl)-acetamide] was run?
A: 8.50

Q: How did the pKi turn out when `O=C(Cc1cccc(F)c1)NC1CCN(Cc2ccc(F)cc2)CC1` [N-[1-(4-Fluoro-benzyl)-piperidin-4-yl]-2-(3-fluoro-phenyl)-acetamide] was run?
A: 8.26

Q: How did the pKi turn out when `O=C(Cc1ccccc1)NC1CCN(Cc2ccc(F)cc2)CC1` [N-[1-(4-Fluoro-benzyl)-piperidin-4-yl]-2-phenyl-acetamide] was run?
A: 8.18

Q: How did the pKi turn out when `O=C(Cc1ccccc1)NC1CCN(Cc2ccc(I)cc2)CC1` [N-[1-(4-Iodo-benzyl)-piperidin-4-yl]-2-phenyl-acetamide] was run?
A: 8.04

Q: How did the pKi turn out when `O=C(Cc1ccccc1)NC1CCN(Cc2ccc([N+](=O)[O-])cc2)CC1` [N-[1-(4-Nitro-benzyl)-piperidin-4-yl]-2-phenyl-acetamide] was run?
A: 7.72

From BindingDB's records for doi:10.1021/jm010384j (Wake Forest University School of Medicine, 2001)
